Patent US20070117743A1, “New antitumoral compounds” (priority 2003, published 2007)
Like-named read-outs stand apart in the source and are kept apart here. Where a SMILES comes first, the peptide text is derived from it. Bridges are numbered along the chain shown (N, C = ends). [ ]: non-standard residue; d: D form. The star is where a group is joined. d(aIle) = CC[C@H](C)[C@@H](N)C(=O)O; d(aThr) = C[C@@H](O)[C@@H](N)C(=O)O; Hexanoyl(5-Me) = CC(C)CCCC(=O)*; Orn = NCCC[C@H](N)C(=O)O; Dhb = C/C=C(\N)C(=O)O

How the values were obtained:
Format in all cases: cell-based, human
A-549 = assay: SRB colorimetric assay of cell growth and viability, A-549; settings: 48 hours exposure; for GI50: read-out: GI50 A-549; for CC50: read-out: LC50 A-549
SK-MEL-28 = assay: SRB colorimetric assay of cell growth and viability, SK-MEL-28; settings: 48 hours exposure; for CC50: read-out: LC50 MEL-28
HT-29 = assay: SRB colorimetric assay of cell growth and viability, HT-29; settings: 48 hours exposure; for GI50: read-out: GI50 HT-29; for CC50: read-out: LC50 HT-29
LoVo-Dox = assay: SRB colorimetric assay of cell growth and viability, LoVo-Dox; settings: LOVO-DOX, 48 hours exposure
Summary of the method: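 SRB staining (0.4% wt/vol in 1% acetic acid, 10 min, room temperature) of cells fixed with 50% TCA follows a 48-hour exposure to compound. Plating density is 5×10^3 cells/well, and the OD is taken at 490 nm.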

DU-145 = assay: SRB colorimetric assay of cell growth and viability, DU-145; settings: 48 hours exposure
LNCaP = assay: SRB colorimetric assay of cell growth and viability, LNCaP; settings: 48 hours exposure; for CC50: read-out: LC50 LN-caP
SK-BR-3 = assay: SRB colorimetric assay of cell growth and viability, SK-BR-3; settings: 48 hours exposure
IGROV-1 = assay: SRB colorimetric assay of cell growth and viability, IGROV-1; settings: 48 hours exposure
IGROV-ET = assay: SRB colorimetric assay of cell growth and viability, IGROV-ET; settings: 48 hours exposure; for CC50: read-out: LC50 IGROV-ET
HeLa = assay: SRB colorimetric assay of cell growth and viability, HeLa; settings: 48 hours exposure; for CC50: read-out: LC50 HELA
HeLa-APL = assay: SRB colorimetric assay of cell growth and viability, HeLa-APL; settings: 48 hours exposure; for CC50: read-out: LC50 HELA-APL
K-562 = assay: SRB colorimetric assay of cell growth and viability, K-562; settings: 48 hours exposure; for CC50: read-out: LC50 K-562
PANC-1 = assay: SRB colorimetric assay of cell growth and viability, PANC-1; settings: 48 hours exposure; for CC50: read-out: LC50 PANC-1
LoVo = assay: SRB colorimetric assay of cell growth and viability, LoVo; settings: 48 hours exposure

Compound: C/C=C1\NC(=O)[C@H](Cc2ccccc2)NC(=O)[C@@H](C(C)C)NC(=O)[C@@H]([C@@H](C)CC)NC(=O)[C@H](NC(=O)[C@H](NC(=O)[C@H](CCCN)NC(=O)[C@H]2CCCN2C(=O)[C@H](NC(=O)[C@@H](NC(=O)[C@H](C)NC(=O)[C@H](NC(=O)CCCC(C)C)C(C)C)C(C)C)C(C)C)[C@@H](C)CC)[C@@H](C)OC(=O)[C@H](C(C)C)NC1=O [Compound 112, [Ala^12]-KF] ({Hexanoyl(5-Me)}-[dV]AV[dV][dP][Orn][d(aIle)][d(aThr)][d(aIle)][dV]F[Dhb]V; ester 8-C)
- TGI A-549 (A-549; A-549): 2.87E−06 Molar
- GI50 (A-549; A-549): 1450 nM
- CC50 (A-549; A-549): 5640 nM
- GI50 (SK-MEL-28; MEL-28): 1390 nM
- TGI MEL-28 (SK-MEL-28; MEL-28): 2.74E−06 Molar
- CC50 (SK-MEL-28; MEL-28): 5430 nM
- TGI HT-29 (HT-29; HT-29): 2.26E−06 Molar
- GI50 (HT-29; HT-29): 1150 nM
- CC50 (HT-29; HT-29): 4450 nM
- GI50 (LoVo-Dox): 1110 nM
- TGI LOVO-DOX (LoVo-Dox): 2.76E−06 Molar
- CC50 (LoVo-Dox; read-out: LC50 LOVO-DOX): 6850 nM
- GI50 (DU-145; DU-145): 1340 nM
- LC50 (concentration causing 50% net cell kill) (DU-145; DU-145): 5910 nM
- TGI DU-145 (DU-145; DU-145): 2.82E−06 Molar
- GI50 (LNCaP; LN-caP): 1190 nM
- TGI LN-caP (LNCaP; LN-caP): 2.64E−06 Molar
- CC50 (LNCaP; LN-caP): 5850 nM
- GI50 (SK-BR-3; SK-BR-3): 3970 nM
- LC50 (SK-BR-3; SK-BR-3): 6910 nM
- TGI SK-BR-3 (SK-BR-3; SK-BR-3): 5.84E−06 Molar
- GI50 (IGROV-1; IGROV): 1310 nM
- LC50 (concentration causing 50% net cell killing) (IGROV-1; IGROV): 6910 nM
- TGI IGROV (IGROV-1; IGROV): 3.09E−06 Molar
- GI50 (IGROV-ET; IGROV-ET): 1510 nM
- TGI IGROV-ET (IGROV-ET; IGROV-ET): 3.44E−06 Molar
- CC50 (IGROV-ET; IGROV-ET): 6910 nM
- GI50 (HeLa; HELA): 739 nM
- TGI HELA (HeLa; HELA): 2.41E−06 Molar
- CC50 (HeLa; HELA): 6910 nM
- GI50 (HeLa-APL; HELA-APL): 1420 nM
- TGI HELA-APL (HeLa-APL; HELA-APL): 2.85E−06 Molar
- CC50 (HeLa-APL; HELA-APL): 5750 nM
- GI50 (K-562; K-562): 2790 nM
- TGI K-562 (K-562; K-562): 5.62E−06 Molar
- CC50 (K-562; K-562): 6910 nM
- GI50 (PANC-1; PANC-1): 1910 nM
- TGI PANC-1 (PANC-1; PANC-1): 5.43E−06 Molar
- CC50 (PANC-1; PANC-1): 6910 nM

Compound: C/C=C1\NC(=O)[C@H](Cc2ccccc2)NC(=O)[C@@H](C(C)C)NC(=O)[C@@H]([C@@H](C)CC)NC(=O)[C@H](NC(=O)[C@H](NC(=O)[C@H](CCCN)NC(=O)[C@H]2CCCN2C(=O)[C@H](NC(=O)[C@@H](NC(=O)[C@@H](NC(=O)[C@H](NC(=O)c2ccccc2)C(C)C)[C@@H](C)O)C(C)C)C(C)C)[C@@H](C)CC)[C@@H](C)OC(=O)[C@H](C(C)C)NC1=O [Compound 20, [Bza^14]-KF]
- TGI A-549 (A-549): 1.95E−06 Molar
- GI50 (A-549): 952 nM
- CC50 (A-549): 3970 nM
- GI50 (SK-MEL-28): 1200 nM
- TGI MEL-28 (SK-MEL-28): 2.26E−06 Molar
- CC50 (SK-MEL-28): 4230 nM
- TGI HT-29 (HT-29): 1.64E−06 Molar
- GI50 (HT-29): 694 nM
- CC50 (HT-29): 3880 nM
- GI50 (LoVo): 128 nM
- TGI LOVO (LoVo): 3.03E−07 Molar
- CC50 (LoVo; read-out: LC50 LOVO): 810 nM
- GI50 (DU-145): 939 nM
- LC50 (concentration causing 50% net cell kill) (DU-145): 4250 nM
- TGI DU-145 (DU-145): 1.99E−06 Molar
- TGI LN-caP (LNCaP): 2.87E−06 Molar
- GI50 (LNCaP; read-out: GI50 LN-caP): 1180 nM
- CC50 (LNCaP): 6800 nM
- GI50 (SK-BR-3): 320 nM
- LC50 (SK-BR-3): 3380 nM
- TGI SK-BR-3 (SK-BR-3): 1.16E−06 Molar
- GI50 (IGROV-1): 714 nM
- LC50 (concentration causing 50% net cell killing) (IGROV-1): 4200 nM
- TGI IGROV (IGROV-1): 1.73E−06 Molar
- GI50 (IGROV-ET): 755 nM
- TGI IGROV-ET (IGROV-ET): 1.78E−06 Molar
- CC50 (IGROV-ET): 4200 nM
- GI50 (HeLa): 1110 nM
- TGI HELA (HeLa): 2.30E−06 Molar
- CC50 (HeLa): 4760 nM
- GI50 (HeLa-APL): 1010 nM
- TGI HELA-APL (HeLa-APL): 2.08E−06 Molar
- CC50 (HeLa-APL): 4270 nM
- GI50 (K-562): 305 nM
- TGI K-562 (K-562): 2.12E−06 Molar
- CC50 (K-562): 6800 nM
- GI50 (PANC-1): 3790 nM
- TGI PANC-1 (PANC-1): 6.80E−06 Molar
- CC50 (PANC-1): 6800 nM

Compound: C/C=C1\NC(=O)[C@H](Cc2ccccc2)NC(=O)[C@@H](C(C)C)NC(=O)[C@@H]([C@@H](C)CC)NC(=O)[C@H](NC(=O)[C@H](NC(=O)[C@H](CCCN)NC(=O)[C@H]2CCCN2C(=O)[C@H](NC(=O)[C@@H](NC(=O)[C@@H](NC(=O)[C@H](NC(=O)c2ccc(C)cc2)C(C)C)[C@@H](C)O)C(C)C)C(C)C)[C@@H](C)CC)[C@@H](C)OC(=O)[C@H](C(C)C)NC1=O [Compound 19, [p-MeBza^14]-KF]
- TGI A-549 (A-549): 1.71E−06 Molar
- GI50 (A-549): 775 nM
- GI50 (SK-MEL-28): 1160 nM
- TGI MEL-28 (SK-MEL-28): 2.24E−06 Molar
- TGI HT-29 (HT-29): 1.12E−06 Molar
- GI50 (HT-29): 314 nM
- GI50 (LoVo): 120 nM
- TGI LOVO (LoVo): 2.35E−07 Molar
- GI50 (DU-145): 775 nM
- TGI DU-145 (DU-145): 1.73E−06 Molar
- TGI LN-caP (LNCaP): 2.55E−06 Molar
- GI50 (LNCaP; read-out: GI50 LN-caP): 1020 nM
- GI50 (SK-BR-3): 170 nM
- TGI SK-BR-3 (SK-BR-3): 3.77E−07 Molar
- GI50 (IGROV-1): 343 nM
- TGI IGROV (IGROV-1): 1.37E−06 Molar
- GI50 (IGROV-ET): 439 nM
- TGI IGROV-ET (IGROV-ET): 1.44E−06 Molar
- GI50 (HeLa): 849 nM
- TGI HELA (HeLa): 1.95E−06 Molar
- GI50 (HeLa-APL): 923 nM
- TGI HELA-APL (HeLa-APL): 2.00E−06 Molar
- GI50 (K-562): 762 nM
- TGI K-562 (K-562): 2.01E−06 Molar
- GI50 (PANC-1): 2060 nM
